Measured values published in patent US8592359B2 (priority 2010, dated 2013).

Tested on: amylase Stainzyme® 12,0 1
Assay: Residual amylolytic activity after storage in a liquid washing agent (starch / dinitrosalicylic acid)
Format: biochemical
Details: 1 wt % stabilizer, 4 weeks at 30° C., initial activity 100%
Description: A liquid washing agent of the following composition serves as a baseline washing agent formulation (all indications in percent by weight): 0.3 to 0.5% xanthan, 0.2 to 0.4% antifoaming agent, 6 to 7% glycerol, 0.3 to 0.5% ethanol, 4 to 7% FAEOS (fatty alcohol ether sulfate), 24 to 28% nonionic surfactants, 1 to 2% sodium citrate (dihydrate), 2 to 4% soda, 14 to 16% coconut fatty acids, 0.5% HEDP (1-hydroxyethane-(1,1-diphosphonic acid)), 0 to 0.4% PVP (polyvinylpyrrolidone), 0 to 0.05% optical brightener, 0 to 0.001% dye, remainder demineralized water.
The monosaccharide glycerate glucosyl glycerate was incorporated, as the component stabilizing the hydrolytic enzyme, into the baseline washing agent formulation according to Example 2 (see Table 2, indications in this regard in wt %). […] The amylase used was the Stainzyme® 12,0 1 product of the company Novozymes A/S. The amylase was used in the washing agent either alone or in combination with the protease of Example 2 (utilization quantity: 1.0 wt % amylase and/or 1.0 wt % protease, respectively active substance).
After storage, the respective residual amylolytic activity was determined by incubating the samples under defined reaction conditions (tris-maleate buffer, pH 6.5, 50° C., 15 min) with 0.67% starch (FLUKA no. 85642, from potatoes, soluble, pretreated per Zulkowsky (treated with glycerol at 190° C.)). […]

OB(O)O [boric acid]
residual amylolytic activity after storage (with protease (1.0 wt %)): 92%
residual amylolytic activity after storage (without protease): 97%
